Test results: patent US11179383B2 (Gilead Sciences, Inc., priority 2018, dated 2021)
Read-outs that look alike come from different tables or passages of the source. Values belong to the compound of their own block, whether it stands above or below them.

Molecular target: T1, α4β7 integrin (Homo sapiens, UniProt P13612+P26010)
T1 construct: monitoring the capture of α4β7 integrin expressing cells on a recombinant MadCAM-1 extracellular domain-coated plate; endogenous in cells; host or cells: RPMI8866 cells
T1 sequence (P13612 34-1032): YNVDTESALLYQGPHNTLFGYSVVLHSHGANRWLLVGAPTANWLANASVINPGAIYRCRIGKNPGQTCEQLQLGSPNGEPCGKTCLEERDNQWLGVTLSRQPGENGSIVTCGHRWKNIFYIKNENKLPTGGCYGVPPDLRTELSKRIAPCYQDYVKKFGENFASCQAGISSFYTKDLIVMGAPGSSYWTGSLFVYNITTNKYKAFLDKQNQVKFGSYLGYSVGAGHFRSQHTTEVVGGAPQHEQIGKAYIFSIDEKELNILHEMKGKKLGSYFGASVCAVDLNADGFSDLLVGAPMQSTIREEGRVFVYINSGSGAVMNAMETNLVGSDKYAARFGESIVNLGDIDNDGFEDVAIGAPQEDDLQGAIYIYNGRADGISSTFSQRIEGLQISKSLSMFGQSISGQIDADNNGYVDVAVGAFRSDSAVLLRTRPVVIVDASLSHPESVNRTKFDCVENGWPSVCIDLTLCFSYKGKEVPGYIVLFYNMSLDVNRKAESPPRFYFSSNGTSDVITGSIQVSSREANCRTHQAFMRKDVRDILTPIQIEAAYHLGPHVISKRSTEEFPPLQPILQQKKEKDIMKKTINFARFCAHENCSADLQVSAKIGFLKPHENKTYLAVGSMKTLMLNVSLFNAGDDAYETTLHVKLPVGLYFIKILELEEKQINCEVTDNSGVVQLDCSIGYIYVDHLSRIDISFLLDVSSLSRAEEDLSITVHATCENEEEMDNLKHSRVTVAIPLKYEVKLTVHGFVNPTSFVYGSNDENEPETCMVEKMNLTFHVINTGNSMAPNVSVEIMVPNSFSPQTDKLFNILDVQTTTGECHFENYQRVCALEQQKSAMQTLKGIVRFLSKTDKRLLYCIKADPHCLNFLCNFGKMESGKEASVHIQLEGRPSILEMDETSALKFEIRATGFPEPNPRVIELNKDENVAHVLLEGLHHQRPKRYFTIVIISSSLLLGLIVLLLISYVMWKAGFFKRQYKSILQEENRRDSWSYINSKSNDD
T1 sequence (P26010 20-798): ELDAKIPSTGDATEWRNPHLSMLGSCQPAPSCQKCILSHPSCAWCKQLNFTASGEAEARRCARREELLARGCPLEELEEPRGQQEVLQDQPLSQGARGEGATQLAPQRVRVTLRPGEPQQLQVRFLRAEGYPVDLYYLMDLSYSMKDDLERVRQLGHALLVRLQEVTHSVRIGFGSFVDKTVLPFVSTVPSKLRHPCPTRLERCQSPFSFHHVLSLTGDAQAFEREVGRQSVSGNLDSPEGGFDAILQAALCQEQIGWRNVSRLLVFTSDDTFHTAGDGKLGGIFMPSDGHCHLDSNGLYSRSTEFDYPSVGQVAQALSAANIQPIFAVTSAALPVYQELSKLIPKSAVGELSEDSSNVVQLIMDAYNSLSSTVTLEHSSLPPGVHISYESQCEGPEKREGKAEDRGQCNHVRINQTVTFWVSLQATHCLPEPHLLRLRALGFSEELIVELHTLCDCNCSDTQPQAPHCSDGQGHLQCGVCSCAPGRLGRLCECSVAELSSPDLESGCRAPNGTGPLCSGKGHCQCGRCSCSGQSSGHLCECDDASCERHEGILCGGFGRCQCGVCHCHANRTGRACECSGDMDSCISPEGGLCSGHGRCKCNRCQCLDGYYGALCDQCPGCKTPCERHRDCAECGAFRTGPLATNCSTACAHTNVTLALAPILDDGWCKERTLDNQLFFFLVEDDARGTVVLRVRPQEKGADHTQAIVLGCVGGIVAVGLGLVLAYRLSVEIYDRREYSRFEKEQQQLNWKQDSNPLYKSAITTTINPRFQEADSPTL
Test: α4β7 Integrin Cell Capture Assay
Format: cell-based
Details: capture of α4β7 integrin expressing RPMI8866 cells on recombinant MadCAM-1 extracellular domain-coated plate, DMEM+0.5% FBS+0.5 mM MnCl2
Procedure: α4β7 Integrin Cell Capture Assay
The potency of inhibitors in preventing α4β7 integrin interaction with MadCAM-1 was measured by monitoring the capture of α4β7 integrin expressing cells on a recombinant MadCAM-1 extracellular domain-coated plate.
384-Well plates (Corning 3702) were coated with MadCAM-1 extracellular domain by dispensing 20 μL of MAdCAM-1 at 1.0 μg/mL per well and incubating overnight at 4° C. The plates were then washed with PBS and blocked with 3% BSA for 2 hours before being washed again.
RPMI8866 cells were spun down and re-suspended in assay medium (DMEM+0.5% FBS+0.5 mM MnCl2) at a density of 0.5×10^6 cells/mL. The cells were then dispensed (60 μL/well) to a 384-well plate (Greiner 781280) that was previously spotted with 60 nL of test compound per well. The plates were incubated at 37° C. for 1 hour. 50 μL of cells were transferred to the blocked, MadCAM-1-coated plates and incubated for 30 minutes at 37° C. 10 μL of 12% glutaraldehyde containing Hoechst 33342 (0.06 mg/mL) was added to the cells (2% glutaraldehyde and 0.01 mg/mL final concentrations). The plates were incubated for 90 minutes at room temperature. The plates were then washed 3 times with 70 μL of PBS per well and imaged on a Cellomics ArrayScan instrument. The cells that were bound to the plate were counted and plotted against the compound concentration to determine the EC50 of the test compounds.

SMILES: Cn1cccc(-c2ccc(C[C@H](NC(=O)c3c(Cl)cccc3Cl)C(=O)O)c3ncccc23)c1=O [Example 39, (S)-2-(2,6-dichlorobenzamido)-3-(5-(1-methyl-2-oxo-1,2-dihydropyridin-3-yl)quinolin-8-yl)propanoic acid]
- EC50 (read-out: EC50 α4β7): 74 nM

SMILES: CN(C)C(=O)Oc1ccc(C[C@H](NC(=O)c2c(Cl)cccc2Cl)C(=O)O)c2ncccc12 [Example 89, (S)-2-(2,6-dichlorobenzamido)-3-(5-((dimethylcarbamoyl)oxy)quinolin-8-yl)propanoic acid]
- EC50 (EC50 α4β7 (nM)): 173 nM

SMILES: Cn1ccnc(-c2ccc(C[C@H](NC(=O)c3c(Cl)cccc3Cl)C(=O)O)c3ncccc23)c1=O [Example 27, (S)-2-(2,6-dichlorobenzamido)-3-(5-(4-methyl-3-oxo-3,4-dihydropyrazin-2-yl)quinolin-8-yl)propanoic acid]
- EC50 (read-out: EC50 α4β7): 57.7 nM

SMILES: O=C(N[C@@H](Cc1ccc(-c2c(Cl)cc(F)cc2Cl)c2cccnc12)C(=O)O)c1c(F)cc(N2CCOCC2C(F)(F)F)cc1F (single isomer, unassigned) [Example 6]
- EC50 (read-out: EC50 α4β7): 139 nM

SMILES: Cc1c(-c2ccc(C[C@H](NC(=O)c3c(Cl)cccc3Cl)C(=O)O)c3ncccc23)c(=O)n(C)c2ccccc12 (single isomer, unassigned) [Example 47]
- EC50 (read-out: EC50 α4β7): 28.6 nM

SMILES: O=C(N[C@@H](Cc1ccc(-c2cccc[n+]2[O-])c2cccnc12)C(=O)O)c1c(Cl)cccc1Cl [Example 38]
- EC50 (read-out: EC50 α4β7): 212 nM

SMILES: Cc1cc(-c2ccc(C[C@H](NC(=O)c3c(Cl)cccc3Cl)C(=O)O)c3ncccc23)c(=O)n(C)c1 [Example 31, (S)-2-(2,6-Dichlorobenzamido)-3-(5-(1,5-dimethyl-2-oxo-1,2-dihydropyridin-3-yl)quinolin-8-yl)propanoic acid]
- EC50 (read-out: EC50 α4β7): 23.2 nM

SMILES: O=C(N[C@@H](Cc1ccc(-c2nccc(C(F)(F)F)c2Cl)c2cccnc12)C(=O)O)c1c(Cl)cccc1Cl [Example 51, (S)-3-(5-(3-chloro-4-(trifluoromethyl)pyridin-2-yl)quinolin-8-yl)-2-(2,6-dichlorobenzamido)propanoic acid]
- EC50 (read-out: EC50 α4β7): 45.1 nM

Results, then the compound that gave them:

- EC50 (read-out: EC50 α4β7): 55.7 nM
SMILES: Cc1c(-c2ccc(C[C@H](NC(=O)c3c(Cl)cccc3Cl)C(=O)O)c3ncccc23)c(=O)n(C)c2ccc(Cl)cc12 (single isomer, unassigned) [Example 76]

- EC50 (read-out: EC50 α4β7): 10.2 nM
SMILES: CC[C@@H](Nc1cc(F)c(C(=O)N[C@@H](Cc2ccc(-c3nccc(C)c3C(F)(F)F)c3ccccc23)C(=O)O)c(F)c1)C(F)(F)F [Example 123, (S)-2-(2,6-difluoro-4-(((R)-1,1,1-trifluorobutan-2-yl)amino)benzamido)-3-(4-(4-methyl-3-(trifluoromethyl)pyridin-2-yl)naphthalen-1-yl)propanoic acid]

- EC50 (read-out: EC50 α4β7): 9.2 nM
SMILES: COc1cnn(C)c(=O)c1-c1ccc(C[C@H](NC(=O)c2c(Cl)cccc2Cl)C(=O)O)c2ncccc12 [Example 69, (S)-2-(2,6-dichlorobenzamido)-3-(5-(5-methoxy-2-methyl-3-oxo-2,3-dihydropyridazin-4-yl)quinolin-8-yl)propanoic acid]

- EC50 (read-out: EC50 α4β7): 24.4 nM
SMILES: CCOCc1cc(OC)c(-c2cnc(C[C@H](NC(=O)c3c(F)cc(NS(=O)(=O)c4ccc(-c5ccnc(F)c5)cc4)cc3F)C(=O)O)c3cccnc23)c(OC)c1 [Example 166, (S)-2-(2,6-difluoro-4-((4-(2-fluoropyridin-4-yl)phenyl)sulfonamido)benzamido)-3-(8-(4-(ethoxymethyl)-2,6-dimethoxyphenyl)-1,6-naphthyridin-5-yl)propanoic acid]

- EC50 (read-out: EC50 α4β7): 0.6 nM
SMILES: CCOCc1cc(OC)c(-c2ccc(CC(NC(=O)c3c(F)cc(NS(=O)(=O)c4ccc(-c5ccnc(F)c5)cc4)cc3F)C(=O)O)c3ccncc23)c(OC)c1 (centres unmarked) [Example 160, 2-(2,6-difluoro-4-((4-(2-fluoropyridin-4-yl)phenyl)sulfonamido)benzamido)-3-(8-(4-(ethoxymethyl)-2,6-dimethoxyphenyl)isoquinolin-5-yl)propanoic acid]

- EC50 (read-out: EC50 α4β7): 43.8 nM
SMILES: COc1cc(F)c(Cl)cc1-c1ccc(C[C@H](NC(=O)c2c(Cl)cccc2Cl)C(=O)O)c2ncccc12 [Example 52, (S)-3-(5-(5-chloro-4-fluoro-2-methoxyphenyl)quinolin-8-yl)-2-(2,6-dichlorobenzamido)propanoic acid]

- EC50 (read-out: EC50 α4β7): 139 nM
SMILES: O=C(N[C@@H](Cc1ccc(-c2c(Cl)cc(F)cc2Cl)c2ccccc12)C(=O)O)c1c(Cl)cccc1Cl [Example 107, (S)-3-(4-(2,6-dichloro-4-fluorophenyl)naphthalen-1-yl)-2-(2,6-dichlorobenzamido)propanoic acid]

- EC50 (read-out: EC50 α4β7): 111 nM
SMILES: COc1cc(F)c(F)cc1-c1ccc(C[C@H](NC(=O)c2c(Cl)cccc2Cl)C(=O)O)c2nccc(Cl)c12 [Example 94, (S)-3-(4-chloro-5-(4,5-difluoro-2-methoxyphenyl)quinolin-8-yl)-2-(2,6-dichlorobenzamido)propanoic acid]

- EC50 (read-out: EC50 α4β7): 0.3 nM
SMILES: CCOCc1cc(OC)c(-c2ccc(C[C@H](NC(=O)c3c(F)cc(NS(=O)(=O)c4ccc(-c5ccnc(F)c5)cc4)cc3F)C(=O)O)c3nsnc23)c(OC)c1 [Example 149, (S)-2-(2,6-difluoro-4-((4-(2-fluoropyridin-4-yl)phenyl)sulfonamido)benzamido)-3-(7-(4-(ethoxymethyl)-2,6-dimethoxyphenyl)benzo[c]-[1,2,5]thiadiazol-4-yl)propanoic acid]

- EC50 (read-out: EC50 α4β7): 6.4 nM
SMILES: Cc1cc(C)n(C)c(=O)c1-c1ccc(C[C@H](NC(=O)c2c(F)cc(N3CCOC[C@@H]3C(F)(F)F)cc2F)C(=O)O)c2ccccc12 (single isomer, unassigned) [Example 126]

- EC50 (read-out: EC50 α4β7): 1 nM
SMILES: CCOCc1cc(OC)c(-c2ccc(C[C@H](NC(=O)c3c(F)cc(NS(=O)(=O)c4ccc(-c5ccnc(F)c5)cc4)cc3F)C(=O)O)c3ncccc23)c(OC)c1 [Example 102, (S)-2-(2,6-difluoro-4-((4-(2-fluoropyridin-4-yl)phenyl)sulfonamido)benzamido)-3-(5-(4-(ethoxymethyl)-2,6-dimethoxyphenyl)quinolin-8-yl)propanoic acid]

- EC50 (read-out: EC50 α4β7): 109 nM
SMILES: O=C(N[C@@H](Cc1ccc(-c2cc(F)c(F)cc2OC2CC2)c2cccnc12)C(=O)O)c1c(F)cccc1F [Example 83, (S)-3-(5-(2-cyclopropoxy-4,5-difluorophenyl)quinolin-8-yl)-2-(2,6-difluorobenzamido)propanoic acid]
